Reference: BindingDB's records for PubMed 33650861 (Sichuan University, 2021)

Experiment: Inhibition of BET (unknown origin)

**Q.** For Cc1sc2c(c1C)C(c1ccc(Cl)cc1)=N[C@@H](CC(=O)OC(C)(C)C)c1nnc(C)n1-2, which IC50 is on record?
**A.** 500 nM
